Laboratory results taken from patent US9957289B2, “Compounds and methods for treating bacterial infections” (Washington University, priority 2013, dated 2018).

Test system: UTI89
Assay: Mouse model of acute UTI, bladder bacterial CFU after UTI89 infection
Type: in vivo, Escherichia coli
Settings: mice, 25 mg/kg oral in 10% cyclodextrin 30 min prior to infecting with UTI89; 6 hpi
Method: The efficacy of in vivo mannoside treatment was evaluated after orally dosing animals with 50 mg/kg of mannosides ZFH-4269 (FIG. 1A), ZFH-5254 (FIG. 1B) and ZFH-5240 (FIG. 1C) or DMSO or PBS 30 min prior to infecting with UTI89. At 6 hours post-infection (hpi) the bladders were removed and total bacterial CFUs were quantitated. […] Next, analogs of 254 were evaluated in the same mouse model of urinary tract infection. Animals were orally dosed with 25 mg/kg of mannosides ZFH-4269 (FIG. 2A), 1CJ68 (FIG. 2B) and 1CJ70 (FIG. 2C) in 10% cyclodextrin or 10% cyclodextrin 30 min prior to infecting with UT189.
The efficacy of in vivo mannoside treatment was evaluated after orally dosing animals with 25 mg/kg of mannosides ZFH269, Prodrug FIM-4269, ZFH-5254, and ZFH-5240 in 10% cyclodextrin or 10% cyclodextrin 30 min prior to infecting with UTI89. At 6 hours post-infection (hpi) the bladders were removed and total bacterial CFUs were quantitated. […] Next, several different prodrugs were evaluated in the same mouse model of urinary tract infection. Animals were orally dosed with 25 mg/kg of mannosides ZFH-4269, prodrug FIM-1233 (FIG. 8B), prodrug FIM-6123 (FIG. 8C) and prodrug 269 in 10% cyclodextrin or 10% cyclodextrin 30 min prior to infecting with UT189.
The FimH-mannose interaction was further investigated in an effort to develop potential ligand-based antagonists of UTIs. […] The non-reducing Man4 anchors into the mannose-binding pocket while the GlcNAc folds over Thr51 allowing specific interactions with a hydrophobic tyrosine gate. Heptyl mannoside mimics the GlcNAc tail of oligomannose-3 and extends it further to increase interactions outside the binding pocket resulting in high affinity binding (Kd=5 nM). Based on the high affinity of heptyl mannose for FimH, the ability of heptyl mannose to reduce bacterial infection in our mouse model of UTI was tested. First, biofilm formation as a surrogate for IBCs formed in the bladder was evaluated. […] Thus, UPEC strain UTI89 was incubated with heptyl mannose prior to inoculation into the bladders of mice.
Bacteria were grown under type 1 pili-inducing conditions (2×24 h at 37° C. statically in LB). The bacteria were harvested and resuspended to an OD600 of 0.5 in PBS. Eight-week-old C3H/HeN (Harlan) female mice were anesthetized by inhalation of isoflurane and infected via transurethral catheterization with […] of the bacterial suspension, resulting in 1-2×10^7 inoculum. At 6 hpi, mice were sacrificed by cervical dislocation under anesthesia and the bladders were immediately harvested and processed as described below. All animal studies using mice were approved by the Animal Studies Committee of Washington University (Animal Protocol Number 20100002).
Mannoside ZFH-2056 was administered either IP (5 mg/kg) or orally (100 mg/kg) 30 min prior to inoculation with UTI89. To enumerate the bacteria present, mice were sacrificed at 6 hpi and bladders were aseptically removed and homogenized in 1 ml PBS, serially diluted and plated onto LB agar plates. CFU was enumerated after 16 h of growth at 37° C.

In the case of `CNC(=O)c1cccc(-c2ccc(OC3OC(COP(=O)(O)O)C(O)C(O)C3O)c(C)c2)c1` [Example 21, [(2S,3S,4S,5R,6R)-3,4,5-trihydroxy-6-[2-methyl-4-[3-(methylcarbamoyl)phenyl]phenoxy]tetrahydropyan-2-yl]methyl dihydrogen phosphate], the “total bacterial CFUs in the bladder” value is reported as “drop in bacterial counts”.
`CNC(=O)c1cccc(-c2ccc(O[C@H]3O[C@@H](COC(=O)CN(C)C)[C@@H](O)[C@H](O)[C@H]3O)c(C)c2)c1` [Example 22, [(2S,3S,4S,5R,6R)-3,4,5-trihydroxy-6-[2-methyl-4-[3-(methylcarbamoyl)phenyl]phenoxy]tetrahydropyran-2-yl]methyl 2-dimethylaminoacetate] was tested, and the “total bacterial CFUs in the bladder” value was “drop in bacterial counts”.

Biological target: T1, FimH (Escherichia coli, UniProt P08191)
T1 construct: endogenous in cells; host or cells: type 1 piliated uropathogenic E. coli (UPEC)
Assay: Hemagglutination inhibition (HAI) assay, guinea pig red blood cells
Type: cell-based, E. coli
Settings: concentration inhibiting >90% hemagglutination of guinea pig red blood cells
Method: FIG. 15 depicts the hemagglutination assay (HA) used to assess the compounds' ability to block FimH mediated binding. The HAI titer quantitatively measure the effect of inhibitors on blocking the FimH-mediated hemagglutination (HA) of guinea pig red blood cell infected with E. coli.
In some embodiments, activity of the compound is measured using hemmagglutination titer of guinea pig red blood cells. Hemagglutination of guinea pig red blood cells by type1 piliated UPEC is dependent upon FimH mannose binding ability and serial dilutions allow a quantitative analysis.
Hemagglutination assays for mannose-sensitive agglutination of guinea pig red blood cells were performed as previously described.

T1 sequence (P08191 22-300): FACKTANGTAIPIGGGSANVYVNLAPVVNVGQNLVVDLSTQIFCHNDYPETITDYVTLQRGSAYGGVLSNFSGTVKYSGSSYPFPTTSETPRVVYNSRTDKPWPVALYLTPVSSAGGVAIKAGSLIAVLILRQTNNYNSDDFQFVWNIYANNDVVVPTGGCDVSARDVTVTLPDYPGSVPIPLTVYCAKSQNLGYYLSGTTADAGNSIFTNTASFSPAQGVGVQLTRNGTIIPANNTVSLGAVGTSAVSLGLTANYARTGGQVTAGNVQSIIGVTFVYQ

First: CNC(=O)c1cccc(-c2ccc([C@H](O)C3OC(CO)C(O)C(O)C3O)c(C)c2)c1 (single isomer, unassigned) [Example 18B]
Second: CNC(=O)c1cccc(-c2ccc(C[C@H]3O[C@@H](CO)[C@@H](O)[C@H](O)[C@H]3O)c(C)c2)c1 [Example 19, N-methyl-3-[3-methyl-4-[[(2R,3R,4R,5S,6S)-3,4,5-trihydroxy-6-(hydroxymethyl)tetrahydropyran-2-yl]methyl]phenyl]benzamide]
The “HAI Titer EC>90” value of the first is 3-fold higher: 6.000 µM for the first, 2.000 µM for the second.

Going from `COC(=O)c1cccc(-c2ccc(O[C@H]3O[C@@H](CO)[C@@H](O)[C@H](O)[C@H]3O)c(C)c2)c1` [Example 1, methyl 3-[3-methyl-4-[(2R,3R,4S,5S,6S)-3,4,5-trihydroxy-6-(hydroxymethyl)tetrahydropyran-2-yl]oxy-phenyl]benzoate] to `Cc1cc(-c2cccc(C(=O)Nc3ccncc3)c2)ccc1O[C@H]1O[C@@H](CO)[C@@H](O)[C@H](O)[C@H]1O` [Example 3, 3-[3-methyl-4-[(2R,3R,4S,5S,6S)-3,4,5-trihydroxy-6-(hydroxymethyl)tetrahydropyran-2-yl]oxy-phenyl]-N-(4-pyridyl)benzamide], the “HAI Titer EC>90” value falls from 0.12 µM to 0.064 µM (1.9-fold).

First: Cc1cc(-c2cccc(C(=O)Nc3cccnc3)c2)ccc1O[C@H]1O[C@@H](CO)[C@@H](O)[C@H](O)[C@H]1O [Example 4, 3-[3-methyl-4-[(2R,3R,4S,5S,6S)-3,4,5-trihydroxy-6-(hydroxymethyl)tetrahydropyran-2-yl]oxy-phenyl]-N-(3-pyridyl)benzamide]
Second: Cc1cc(-c2ccc3ccn(CC(=O)Nc4cccnc4)c(=O)c3c2)ccc1O[C@H]1O[C@@H](CO)[C@@H](O)[C@H](O)[C@H]1O [Example 10, 2-[7-[3-methyl-4-[(2R,3R,4S,5S,6S)-3,4,5-trihydroxy-6-(hydroxymethyl)tetrahydropyran-2-yl]oxy-phenyl]-1-oxo-2-isoquinolyl]-N-(3-pyridyl)acetamide]
The “HAI Titer EC>90” value of the first is 32-fold higher: 0.032 µM for the first, 0.001 µM for the second.

`Cc1nnc(-c2ccc(-c3ccc(O[C@H]4O[C@@H](CO)[C@@H](O)[C@H](O)[C@H]4O)c(C)c3)cc2)o1` [Example 5, (2S,3S,4S,5R,6R)-2-(hydroxymethyl)-6-[2-methyl-4-[4-(5-methyl-1,3,4-oxadiazol-2-yl)phenyl]phenoxy]tetrahydropyran-3,4,5-triol] and `Cc1nnc(-c2cccc(-c3ccc(O[C@H]4O[C@@H](CO)[C@@H](O)[C@H](O)[C@H]4O)c(C)c3)c2)o1` [Example 6, (2S,3S,4S,5R,6R)-2-(hydroxymethyl)-6-[2-methyl-4-[3-(5-methyl-1,3,4-oxadiazol-2-yl)phenyl]phenoxy]tetrahydropyran-3,4,5-triol] are the same in “HAI Titer EC>90” value: 0.062 µM for the first, 0.062 µM for the second.

Compared with `COC(=O)Cn1ccc2ccc(-c3ccc(O[C@H]4O[C@@H](CO)[C@@H](O)[C@H](O)[C@H]4O)c(C)c3)cc2c1=O` [Example 8, methyl 2-[7-[3-methyl-4-[(2R,3R,4S,5S,6S)-3,4,5-trihydroxy-6(hydroxymethyl)tetrahydropyran-2-yl]oxy-phenyl]-1-oxo-2-isoquinolyl]acetate], `Cc1cc(-c2ccc3ccn(CC(=O)O)c(=O)c3c2)ccc1O[C@H]1O[C@@H](CO)[C@@H](O)[C@H](O)[C@H]1O` [Example 9, 2-[7-[3-methyl-4-[(2R,3R,4S,5S,6S)-3,4,5-trihydroxy-6-(hydroxymethyl)tetrahydropyran-2-yl]oxy-phenyl]-1-oxo-2-isoquinolyl]acetic acid] is 2.7-fold higher in “HAI Titer EC>90” value: 0.006 µM for the first, 0.016 µM for the second.

Going from `Cc1cc(-c2ccc3ccn(CC(=O)Nc4ccncc4)c(=O)c3c2)ccc1O[C@H]1O[C@@H](CO)[C@@H](O)[C@H](O)[C@H]1O` [Example 11, 2-[7-[3-methyl-4-[(2R,3R,4S,5S,6S)-3,4,5-trihydroxy-6-(hydroxymethyl)tetrahydropyran-2-yl]oxy-phenyl]-1-oxo-2-isoquinolyl]-N-(4-pyridyl)acetamide] to `Cc1cc(-c2ccc3ccn(Cc4ccncc4)c(=O)c3c2)ccc1O[C@H]1O[C@@H](CO)[C@@H](O)[C@H](O)[C@H]1O` [Example 15, 7-[3-methyl-4-[(2R,3R,4S,5S,6S)-3,4,5-trihydroxy-6-(hydroxymethyl)tetrahydropyran-2-yl]oxy-phenyl]-2-(4-pyridylmethyl)isoquinolin-1-one], the “HAI Titer EC>90” value rises from 0.001 µM to 0.004 µM (4-fold).

First: Cc1cc(-c2ccc3ccn(CC(=O)N4CCN(C)CC4)c(=O)c3c2)ccc1O[C@H]1O[C@@H](CO)[C@@H](O)[C@H](O)[C@H]1O [Example 12, 2-[2-(4-methylpiperazin-1-yl)-2-oxo-ethyl]-7-[3-methyl-4-[(2R,3R,4S,5S,6S)-3,4,5-trihydroxy-6-(hydroxymethyl)tetrahydropyran-2-yl]oxy-phenyl]isoquinolin-1-one]
Second: Cc1cc(-c2ccc3ccn(CCN(C)C)c(=O)c3c2)ccc1O[C@H]1O[C@@H](CO)[C@@H](O)[C@H](O)[C@H]1O [Example 14, 2-(2-dimethylaminoethyl)-7-[3-methyl-4-[(2R,3R,4S,5S,6S)-3,4,5-trihydroxy-6-(hydroxymethyl)tetrahydropyran-2-yl]oxy-phenyl]isoquinolin-1-one]
The “HAI Titer EC>90” value of the first is 1.5-fold lower: 0.008 µM for the first, 0.012 µM for the second.

Compared with `Cc1cc(-c2ccc3ccn(CC(=O)NCCN)c(=O)c3c2)ccc1OC1OC(CO)C(O)C(O)C1O` [Example 13, N-(2-aminoethyl)-2-[7-[3-methyl-4-[(2R,3R,4S,5S,6S)-3,4,5-trihydroy-6-(hydroxymethyl)tetrahydropyran-2-yl]oxy-phenyl]-1-oxo-2-isoquinolyl]acetamide], `Cc1cc(-c2ccc3ccn(Cc4cccnc4)c(=O)c3c2)ccc1O[C@H]1O[C@@H](CO)[C@@H](O)[C@H](O)[C@H]1O` [Example 16, 7-[3-methyl-4-[(2R,3R,4S,5S,6S)-3,4,5-trihydroxy-6-(hydroxymethyl)tetrahydropyran-2-yl]oxy-phenyl]-2-(3-pyridylmethyl)isoquinolin-1-one] is 2-fold lower in “HAI Titer EC>90” value: 0.016 µM for the first, 0.008 µM for the second.

In the case of `CNC(=O)c1sc(-c2ccc(O[C@H]3O[C@@H](CO)[C@@H](O)[C@H](O)[C@H]3O)c(C)c2)cc1NC(N)=O` [Example 17, N-methyl-5-[3-methyl-4-[(2R,3R,4S,5S,6S)-3,4,5-trihydroxy-6-(hydroxymethyl)tetrahydropyran-2-yl]oxy-phenyl]-3-ureido-thiophene-2-carboxamide], the “HAI Titer EC>90” value is reported as 0.024 µM.
